Data as given in patent US20050107386A1, “Methods of treating diseases and disorders by targeting multiple kinases” (priority 2003, published 2005).

Experiments:
Assay type in all cases: biochemical
Details in all cases: 3 μM; percent of control kinase activity
[1] = molecular target: p70S6K(h) (Homo sapiens, UniProt P23443); test: p70S6K(h) kinase assay
Description: (§1) Six compounds (presumptive single agents) were tested against a panel of 50 kinases. The results are presented in Table 2; numbers for each kinase indicate the percent of control kinase activity in the presence of a 3μM concentration of the indicated agent.
(§2) Agents that target two or more different kinases are useful in the methods of the invention as described elsewhere herein. Such compounds may be identified, and their effect on certain kinases may be identified, using the assays briefly described below in Examples 4-83. Each of these assays was carried out as described in Davies et al., Biochem. J., 351:95-105 (2000). All assays were carried out at 10 μM ATP unless otherwise noted.
In a final reaction volume of 25 μl, p70S6K (h) (5-10 mU) is incubated with 8 mM MOPS pH 7.0, 0.2 mM EDTA, 100 μM […] (SEQ ID NO:9), 10 mM MgAcetate and [γ-^33P-ATP] (specific activity approx. 500 cpm/pmol, concentration as required). The reaction is initiated by the addition of Mg^2+ [γ-^33P-ATP]. After incubation for 40 minutes at room temperature, the reaction is stopped by the addition of 5 μl of a 3% phosphoric acid solution. 10 μl of the reaction is then spotted onto a P30 filtermat and washed three times for 5 minutes in 75 mM phosphoric acid and once in methanol prior to drying and scintillation counting.

[2] = molecular target: CDK5/p35(h) (Homo sapiens, UniProt Q00535); test: CDK5/p35(h) kinase assay
Sequence of CDK5/p35(h) (Q00535 whole entry): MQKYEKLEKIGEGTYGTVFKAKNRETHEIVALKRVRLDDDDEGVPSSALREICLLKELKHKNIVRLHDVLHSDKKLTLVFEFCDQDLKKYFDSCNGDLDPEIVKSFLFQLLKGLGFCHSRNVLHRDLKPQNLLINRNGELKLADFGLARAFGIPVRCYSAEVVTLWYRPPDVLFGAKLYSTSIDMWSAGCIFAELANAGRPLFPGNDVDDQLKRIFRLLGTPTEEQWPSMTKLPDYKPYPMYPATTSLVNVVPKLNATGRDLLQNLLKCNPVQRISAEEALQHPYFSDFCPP
Sequence of CDK5/p35(h) (Q15078 whole entry partner): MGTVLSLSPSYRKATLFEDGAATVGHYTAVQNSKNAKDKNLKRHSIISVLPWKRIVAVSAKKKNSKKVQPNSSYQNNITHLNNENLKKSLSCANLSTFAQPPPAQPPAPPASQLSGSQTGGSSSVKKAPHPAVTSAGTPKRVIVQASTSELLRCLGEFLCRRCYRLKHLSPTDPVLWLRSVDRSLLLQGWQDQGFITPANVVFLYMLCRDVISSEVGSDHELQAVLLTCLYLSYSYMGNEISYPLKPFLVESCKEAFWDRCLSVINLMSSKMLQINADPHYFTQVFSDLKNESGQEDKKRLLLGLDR
Description: as §1, §2
In a final reaction volume of 25 μl, CDK5/p35 (h) (5-10 mU) is incubated with 8 mM MOPS pH 7.0, 0.2 mM EDTA, 0.1 mg/ml histone H1, 10 mM MgAcetate and [γ-^33P-ATP] (specific activity approx. 500 cpm/pmol, concentration as required). The reaction is initiated by the addition of Mg^2+ [γ-^33P-ATP]. After incubation for 40 minutes at room temperature, the reaction is stopped by the addition of 5 μl of a 3% phosphoric acid solution. 10 μl of the reaction is then spotted onto a P30 filtermat and washed three times for 5 minutes in 75 mM phosphoric acid and once in methanol prior to drying and scintillation counting.

[3] = molecular target: T1, ZAP-70(h) (Homo sapiens, UniProt P43403); test: ZAP-70(h) kinase assay
T1 sequence (P43403 1-619): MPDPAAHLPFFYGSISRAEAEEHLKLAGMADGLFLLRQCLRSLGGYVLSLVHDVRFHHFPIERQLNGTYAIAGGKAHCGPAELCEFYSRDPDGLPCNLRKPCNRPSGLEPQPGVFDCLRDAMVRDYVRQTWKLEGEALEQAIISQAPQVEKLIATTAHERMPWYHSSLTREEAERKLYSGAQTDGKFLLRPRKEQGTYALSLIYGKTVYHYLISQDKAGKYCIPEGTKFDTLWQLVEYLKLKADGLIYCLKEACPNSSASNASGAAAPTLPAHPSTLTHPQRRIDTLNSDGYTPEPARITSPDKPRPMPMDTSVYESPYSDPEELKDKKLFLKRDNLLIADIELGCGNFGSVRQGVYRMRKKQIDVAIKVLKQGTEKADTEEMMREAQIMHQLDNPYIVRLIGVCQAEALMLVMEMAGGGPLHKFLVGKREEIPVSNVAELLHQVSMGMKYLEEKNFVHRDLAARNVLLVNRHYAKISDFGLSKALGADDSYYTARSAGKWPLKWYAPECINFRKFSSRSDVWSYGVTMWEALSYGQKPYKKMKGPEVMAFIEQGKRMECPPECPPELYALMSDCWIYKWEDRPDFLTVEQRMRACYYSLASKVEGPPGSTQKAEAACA
Description: as §1, §2
In a final reaction volume of 25 μl, ZAP-70 (h) (5-10 mU) is incubated with 50 mM Tris pH 7.5, 0.1 mM EGTA, 0.1 mM NaVanadate, 0.1% β-mercaptoethanol, 0.1 mg/ml poly(Glu, Tyr) 4:1, 10 mM MnCl2, 10 mM MgAcetate and [γ-^33P-ATP] (Specific activity approx. 500 cpm/pmol, concentration as required). The reaction is initiated by the addition of Mg^2+ [γ-^33P-ATP]. After incubation for 40 minutes at room temperature, the reaction is stopped by the addition of 5 μl of a 3% phosphoric acid solution. 10 μl of the reaction is then spotted onto a Filtermat A and washed three times for 5 minutes in 75 mM phosphoric acid and once in methanol prior to drying and scintillation counting.

[4] = molecular target: MAPKAP-K2(h) (Homo sapiens, UniProt P49137); test: MAPKAP-K2(h) kinase assay
Sequence of MAPKAP-K2(h) (P49137 whole entry): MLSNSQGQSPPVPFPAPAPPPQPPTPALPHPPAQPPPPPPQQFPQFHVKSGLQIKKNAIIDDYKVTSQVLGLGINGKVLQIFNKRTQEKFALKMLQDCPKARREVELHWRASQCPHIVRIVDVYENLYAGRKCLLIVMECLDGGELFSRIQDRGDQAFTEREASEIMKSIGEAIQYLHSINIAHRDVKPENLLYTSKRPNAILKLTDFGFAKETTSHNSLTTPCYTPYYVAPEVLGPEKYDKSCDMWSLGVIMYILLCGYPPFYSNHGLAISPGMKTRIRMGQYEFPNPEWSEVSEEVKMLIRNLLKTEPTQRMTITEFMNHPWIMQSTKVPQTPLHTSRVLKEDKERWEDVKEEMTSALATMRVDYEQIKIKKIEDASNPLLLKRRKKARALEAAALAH
Description: as §1, §2
(§3) In a final reaction volume of 25 μl, MAPKAP-K2 (h) (5-10 mU) is incubated with 50 mM Na-β-glycerophosphate pH 7.5, 0.1 mM EGTA, 30 μM […] (SEQ ID NO:11), 10 mM MgAcetate and [γ-^33P-ATP] (Specific activity approx. 500 cpm/pmol, concentration as required). The reaction is initiated by the addition of Mg^2+ [γ-^33P-ATP]. After incubation for 40 minutes at room temperature, the reaction is stopped by the addition of 5 μl of a 3% phosphoric acid solution. 10 μl of the reaction is then spotted onto a P30 filtermat and washed three times for 5 minutes in 75 mM phosphoric acid and once in methanol prior to drying and scintillation counting.

[5] = molecular target: ROCK-II(h) (Homo sapiens, UniProt O75116); test: ROCK-II(h) kinase assay
Sequence of ROCK-II(h) (O75116 whole entry): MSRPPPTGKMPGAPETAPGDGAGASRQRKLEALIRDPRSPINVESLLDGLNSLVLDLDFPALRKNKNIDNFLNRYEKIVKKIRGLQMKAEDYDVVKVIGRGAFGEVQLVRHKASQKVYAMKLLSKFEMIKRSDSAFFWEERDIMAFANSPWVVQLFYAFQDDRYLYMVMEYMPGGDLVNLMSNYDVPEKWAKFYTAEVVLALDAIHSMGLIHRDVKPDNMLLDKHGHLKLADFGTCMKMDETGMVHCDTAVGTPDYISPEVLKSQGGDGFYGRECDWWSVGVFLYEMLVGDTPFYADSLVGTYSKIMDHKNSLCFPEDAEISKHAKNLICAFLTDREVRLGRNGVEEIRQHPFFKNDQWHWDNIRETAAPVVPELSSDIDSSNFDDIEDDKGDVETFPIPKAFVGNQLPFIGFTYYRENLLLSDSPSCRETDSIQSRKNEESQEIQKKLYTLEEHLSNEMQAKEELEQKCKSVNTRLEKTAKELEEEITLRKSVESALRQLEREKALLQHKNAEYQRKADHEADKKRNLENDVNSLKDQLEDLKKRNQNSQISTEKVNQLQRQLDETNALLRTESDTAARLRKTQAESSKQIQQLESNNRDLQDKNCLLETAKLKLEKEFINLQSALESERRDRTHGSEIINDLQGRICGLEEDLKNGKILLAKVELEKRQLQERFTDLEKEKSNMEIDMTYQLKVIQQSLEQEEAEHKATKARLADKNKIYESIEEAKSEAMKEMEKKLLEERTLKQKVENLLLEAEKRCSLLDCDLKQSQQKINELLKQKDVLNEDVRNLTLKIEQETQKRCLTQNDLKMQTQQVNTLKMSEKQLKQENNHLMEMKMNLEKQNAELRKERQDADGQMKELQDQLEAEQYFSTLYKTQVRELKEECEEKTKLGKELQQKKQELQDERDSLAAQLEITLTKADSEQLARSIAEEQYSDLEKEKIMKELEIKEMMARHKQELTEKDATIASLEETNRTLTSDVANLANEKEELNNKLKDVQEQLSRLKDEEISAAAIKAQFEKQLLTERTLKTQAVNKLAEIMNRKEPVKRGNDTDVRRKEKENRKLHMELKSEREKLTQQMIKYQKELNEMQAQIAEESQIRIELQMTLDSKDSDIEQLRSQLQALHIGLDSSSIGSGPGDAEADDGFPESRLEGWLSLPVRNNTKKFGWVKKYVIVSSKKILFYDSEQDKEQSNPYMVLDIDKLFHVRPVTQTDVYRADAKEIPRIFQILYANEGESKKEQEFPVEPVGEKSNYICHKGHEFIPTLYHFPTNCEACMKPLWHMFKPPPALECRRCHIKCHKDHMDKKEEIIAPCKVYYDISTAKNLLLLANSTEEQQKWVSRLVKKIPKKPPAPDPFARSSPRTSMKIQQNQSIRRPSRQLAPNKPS
Description: as §1, §2
as §3, with “ROCK-II” for “MAPKAP-K2”, “Tris” for “Na-β-glycerophosphate”, “NO:8),” for “NO:11),”, “(specific” for “(Specific”

Sequence of p70S6K(h) (P23443 whole entry): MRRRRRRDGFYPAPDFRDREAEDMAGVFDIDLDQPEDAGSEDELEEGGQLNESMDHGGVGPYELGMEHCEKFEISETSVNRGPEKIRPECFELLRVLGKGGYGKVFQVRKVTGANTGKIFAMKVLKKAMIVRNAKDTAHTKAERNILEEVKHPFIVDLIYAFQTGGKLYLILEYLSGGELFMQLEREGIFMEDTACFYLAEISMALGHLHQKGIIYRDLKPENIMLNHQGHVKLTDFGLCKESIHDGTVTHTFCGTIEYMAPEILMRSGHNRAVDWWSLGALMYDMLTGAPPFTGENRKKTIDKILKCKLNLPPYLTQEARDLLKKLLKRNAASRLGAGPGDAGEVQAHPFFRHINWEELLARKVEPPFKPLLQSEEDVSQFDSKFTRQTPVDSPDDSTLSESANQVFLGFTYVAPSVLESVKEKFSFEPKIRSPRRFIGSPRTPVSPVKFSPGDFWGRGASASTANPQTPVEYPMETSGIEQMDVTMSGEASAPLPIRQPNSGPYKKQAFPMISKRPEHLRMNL

Row | Inhibitory activity (% of control), p70S6K(h) [1] | Inhibitory activity (% of control), CDK5/p35(h) [2] | Inhibitory activity (% of control), ZAP-70(h) [3] | Inhibitory activity (% of control), MAPKAP-K2(h) [4] | Inhibitory activity (% of control), ROCK-II(h) [5] | Structure (SMILES)
1 | 16 % of control | 16 % of control | 40 % of control | 72 % of control | 2 % of control | CC(C)Cc1nc(-c2ccc3[nH]nc(-c4ccc5cc(OCCN6CCCC6)ccc5c4)c3c2)n[nH]1 [CC002, 5-(5-Isobutyl-1H-[1,2,4]Triazol-3-yl)-3-[6-(2-Pyrrolidin-1-yl-Ethoxy)-Naphthalen-2-yl]-1H-Indazole]
2 | 40 % of control | 10 % of control | 68 % of control | 108 % of control | 5 % of control | CC(C)(C)Cc1nc(-c2ccc3[nH]nc(-c4ccc5cc(OCc6ccccn6)ccc5c4)c3c2)n[nH]1 [CC004, 5-[5-(2,2-Dimethyl-propyl)-1H-[1,2,4]triazol-3-yl]-3-[6-(pyridine-2-ylmethoxy)-naphthalen-2-yl]-1H-indazole]
3 | 3 % of control | 8 % of control | 26 % of control | 56 % of control | 2 % of control | CCN1CCC[C@H]1COc1ccc2cc(-c3n[nH]c4ccc(-c5nc(CC(C)(C)C)n[nH]5)cc34)ccc2c1 [CC005, 2-[((2s)-1-ethylpyrrolidin-2-yl)methoxy]-6-{5-[3-(2,2-Dimethylpropyl)(1H-1,2,4,-triazol-5-yl)](1H-indazol-3-yl)}naphthalene]
4 | 41 % of control | 12 % of control | 77 % of control | 96 % of control | 13 % of control | Fc1ccc(-c2n[nH]c3ccc(-c4n[nH]c(C5CCCC5)n4)cc23)cc1 [CC006, 5-(5-Cyclopentyl-1H-[1,2,4]triazol-3-yl)-3-(4-fluoro-phenyl)-1H-indazole, reference compound]
5 | 83 % of control | 50 % of control | 87 % of control | 86 % of control | 69 % of control | O=C(NC1CCCC1)c1cccc(-c2n[nH]c3ccc(-c4nc[nH]n4)cc23)c1 [CC007, 3-(5-(1H-1,2,4-triazol-3-yl)(1H-indazol-3-yl))phenyl-N-cyclopentylcarboxamide, reference compound]

Row | Structure (SMILES) | Inhibitory activity (% of control), p70S6K(h) [1] | Inhibitory activity (% of control), CDK5/p35(h) [2] | Inhibitory activity (% of control), ZAP-70(h) [3] | Inhibitory activity (% of control), MAPKAP-K2(h) [4] | Inhibitory activity (% of control), ROCK-II(h) [5]
6 | COc1ccc2cc(-c3n[nH]c4ccc(-c5n[nH]c(CN6CCOCC6)n5)cc34)ccc2c1 [CC001, 3-(6-Methoxynaphthalen-2-yl)-5-(5-Morpholin-4-Ylmethyl-1H-[1,2,4]Triazol-3-yl)-1H-Indazole] | 17 % of control | 7 % of control | 105 % of control | 97 % of control | 4 % of control
